Source: US12655106B2 (Eikonizo Therapeutics, Inc., priority 2021, dated 2026)

Columns and labels:
Full length Human HDAC8 = target: T1, Full length Human HDAC8 (Homo sapiens, UniProt Q9BY41); test: Caliper endpoint assay for HDAC enzymatic activity (HDAC8); format: biochemical; settings: in vitro enzymatic, 30 min pre-incubation, 1 μM substrate peptide
T1 construct: Full length Human HDAC8; HIS (N); host or cells: baculovirus expression system
T1 sequence (Q9BY41 1-377): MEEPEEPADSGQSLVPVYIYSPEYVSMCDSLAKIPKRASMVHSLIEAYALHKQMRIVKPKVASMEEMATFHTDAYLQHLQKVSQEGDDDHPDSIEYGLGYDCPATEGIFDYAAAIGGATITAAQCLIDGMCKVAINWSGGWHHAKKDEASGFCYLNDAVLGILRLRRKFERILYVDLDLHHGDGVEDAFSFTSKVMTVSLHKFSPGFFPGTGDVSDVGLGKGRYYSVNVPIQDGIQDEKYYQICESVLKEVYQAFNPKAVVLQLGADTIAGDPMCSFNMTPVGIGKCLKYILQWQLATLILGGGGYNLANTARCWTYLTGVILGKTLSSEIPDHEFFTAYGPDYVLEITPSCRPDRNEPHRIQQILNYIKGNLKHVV

Full length Human HDAC6 = target: T2, Full length Human HDAC6 (Homo sapiens, UniProt Q9UBN7); test: Caliper endpoint assay for HDAC enzymatic activity (HDAC6); format: biochemical; settings: for IC50: in vitro enzymatic, Caliper endpoint assay, 30 min pre-incubation, 1 μM substrate peptide; for Selectivity (6 v 8): ratio of HDAC8 IC50/HDAC6 IC50
T2 construct: Full length Human HDAC6; FLAG (C); host or cells: baculovirus expression system
T2 sequence (Q9UBN7 1-1215): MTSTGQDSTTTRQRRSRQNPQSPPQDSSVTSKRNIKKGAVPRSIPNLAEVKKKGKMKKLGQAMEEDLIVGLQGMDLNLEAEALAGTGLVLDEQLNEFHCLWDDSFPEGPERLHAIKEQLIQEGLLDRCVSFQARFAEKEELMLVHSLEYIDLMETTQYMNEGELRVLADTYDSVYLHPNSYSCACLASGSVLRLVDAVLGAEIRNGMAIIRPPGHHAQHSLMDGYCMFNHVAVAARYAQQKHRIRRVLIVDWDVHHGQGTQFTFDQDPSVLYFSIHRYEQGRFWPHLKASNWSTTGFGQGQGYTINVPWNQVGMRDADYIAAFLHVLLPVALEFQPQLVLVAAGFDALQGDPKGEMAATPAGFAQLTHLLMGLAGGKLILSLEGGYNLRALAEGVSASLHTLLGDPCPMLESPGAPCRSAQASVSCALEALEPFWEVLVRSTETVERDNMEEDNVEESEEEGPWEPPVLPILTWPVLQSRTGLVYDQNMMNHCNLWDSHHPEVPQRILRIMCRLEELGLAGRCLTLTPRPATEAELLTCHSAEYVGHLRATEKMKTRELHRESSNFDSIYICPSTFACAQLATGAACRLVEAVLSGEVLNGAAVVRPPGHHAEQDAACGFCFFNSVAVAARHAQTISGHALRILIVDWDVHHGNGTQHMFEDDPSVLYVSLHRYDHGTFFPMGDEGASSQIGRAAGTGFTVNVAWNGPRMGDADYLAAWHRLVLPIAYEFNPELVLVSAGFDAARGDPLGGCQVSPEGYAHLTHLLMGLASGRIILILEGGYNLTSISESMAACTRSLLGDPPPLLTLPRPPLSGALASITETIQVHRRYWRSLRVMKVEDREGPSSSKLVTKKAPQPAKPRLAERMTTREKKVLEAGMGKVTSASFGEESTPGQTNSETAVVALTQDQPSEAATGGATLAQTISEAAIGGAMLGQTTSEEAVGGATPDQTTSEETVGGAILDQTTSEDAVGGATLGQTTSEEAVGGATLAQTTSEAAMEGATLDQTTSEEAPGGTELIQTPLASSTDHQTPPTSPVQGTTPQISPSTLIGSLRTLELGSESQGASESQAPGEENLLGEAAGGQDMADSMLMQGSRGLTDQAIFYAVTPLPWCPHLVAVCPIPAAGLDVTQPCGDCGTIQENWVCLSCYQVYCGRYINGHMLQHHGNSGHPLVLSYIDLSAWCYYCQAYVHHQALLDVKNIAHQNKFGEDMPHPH

Row | SMILES | IC50 (Full length Human HDAC8) [µM] | IC50 (Full length Human HDAC6) [µM] | Selectivity (6 v 8) (Full length Human HDAC6)
1 | O=C(NO)c1cc(F)c2c(c1)CN1CCC[C@@H]1C2 [Compound 124] | 1 to 10 | 0.001 to 0.1 | IV (IV: >100-1000)
2 | CC[C@@H]1N(Cc2ccc(C(=O)NO)cc2F)CC12CCCC2 (single isomer, unassigned) [Compound 168] | 1 to 10 | 0.1 to 1 | –
3 | O=C(NO)c1ccc(CN2C3CCC2COC3)c(F)c1 [Compound 59] | – | – | III (III: >10-100)
4 | C[C@@H]1CC[C@@H]2c3c(F)cc(C(=O)NO)cc3CCN12 (single isomer, unassigned) [Compound 156] | 1 to 10 | 0.1 to 1 | –
5 | O=C(NO)c1cc(F)c2c(c1)CCN1CCCC[C@@H]21 (single isomer, unassigned) [Compound 139] | 1 to 10 | 0.001 to 0.1 | –
6 | O=C(NO)c1ccc2c(c1)CN1CCC[C@@H]21 (single isomer, unassigned) [Compound 165] | – | – | III (III: >10-100)
7 | O=C1CC2CCCC(C1)N2Cc1ccc(C(=O)NO)cc1F [Compound 62] | – | – | III (III: >10-100)
8 | O=C(NO)c1ccc(CN2C3CCCC2COC3)c(F)c1 [Compound 52] | – | – | III (III: >10-100)
9 | CC1(C)C[C@H]2Cc3cc(C(=O)NO)cc(F)c3CN2C1 (single isomer, unassigned) [Compound 125] | – | – | III (III: >10-100)
10 | CN1CC2CCC(C1)N2Cc1ccc(C(=O)NO)cc1F [Compound 56] | – | – | III (III: >10-100)
11 | O=C(NO)c1ccc(CN2CCC3(CCCCC3)C2)c(F)c1 [Compound 75, 4-((2-Azaspiro[4.5]decan-2-yl)methyl)-3-fluoro-N-hydroxybenzamide] | – | – | III (III: >10-100)
12 | O=C(NO)c1cc(F)c(CN2C3CCC2COC3)cc1F [Compound 50] | – | – | III (III: >10-100)
13 | O=C(NO)c1ccc(CN2C3CCCC2CCC3)c(F)c1 [Compound 60] | – | – | II (II: >1-10)
14 | O=C1CC2CCC(C1)N2Cc1ccc(C(=O)NO)cc1F [Compound 63] | – | – | III (III: >10-100)
15 | O=C(NO)c1ccc(CN2C3CCCC2CC3)c(F)c1 [Compound 61] | – | – | II (II: >1-10)

The remaining lines, values ahead:

Row | IC50 (Full length Human HDAC8) [µM] | IC50 (Full length Human HDAC6) [µM] | Selectivity (6 v 8) (Full length Human HDAC6) | SMILES
16 | 10 to 100 | 0.001 to 0.1 | V (V: >1000) | CC1(C)CC(N2CCc3cc(C(=O)NO)cc(F)c3C2)C1 [Compound 201, 2-(3,3-dimethylcyclobutyl)-8-fluoro-3,4-dihydro-1H-isoquinoline-6-carbohydroxamic acid]
17 | 10 to 100 | 0.001 to 0.1 | IV (IV: >100-1000) | CC(=O)N1CCC[C@]2(C1)C[C@H](N1CCc3cc(C(=O)NO)cc(F)c3C1)C2 (single isomer, unassigned) [Compound 348, 2-(6-acetyl-6-azaspiro[3.5]nonan-2-yl)-8-fluoro-3,4-dihydro-1H-isoquinoline-6-carbohydroxamic acid]
18 | 1 to 10 | 0.001 to 0.1 | IV (IV: >100-1000) | CN1CC2(CN3CCc4cc(C(=O)NO)cc(F)c4C3)CC1C2 [Compound 490, 8-fluoro-2-[(2-methyl-2-azabicyclo[2.1.1]hexan-4-yl)methyl]-3,4-dihydro-1H-isoquinoline-6-carbohydroxamic acid]
19 | 1 to 10 | 0.001 to 0.1 | IV (IV: >100-1000) | CC(=O)N1CC[C@H](N2CCc3cc(C(=O)NO)cc(F)c3C2)CC12CCC2 (single isomer, unassigned) [Compound 441]
20 | 10 to 100 | 0.001 to 0.1 | V (V: >1000) | O=C(NO)c1cc(F)c2c(c1)CCN(CC13CC4CC(CC(C4)N1)C3)C2 [Compound 176]
21 | 10 to 100 | 0.1 to 1 | III (III: >10-100) | CN1CC2(C[C@H](N3CCc4cc(C(=O)NO)cc(F)c4C3)CCO2)C1 (single isomer, unassigned) [Compound 452]
22 | > 100 | 0.001 to 0.1 | V (V: >1000) | O=C(NO)c1cc(F)c2c(c1)CCN(C1CCC3(CC1)C[S+]([O-])C3)C2 (stereo not shown) [Compound 426, 8-fluoro-2-(2-oxo-2MA-thiaspiro[3.5]nonan-7-yl)-3,4-dihydro-1H-isoquinoline-6-carbohydroxamic acid]
23 | 10 to 100 | 0.1 to 1 | IV (IV: >100-1000) | CC[C@H]1Cc2c(F)cc(C(=O)NO)cc2CN1C1CC2(CCN(C(C)=O)CC2)C1 (single isomer, unassigned) [Compound 603]
24 | 10 to 100 | 0.001 to 0.1 | – | O=C(NO)c1cc(F)c2c(c1)CCN([C@H]1CCC3(CCCCC3)C1)C2 (single isomer, unassigned) [Compound 109]
25 | 1 to 10 | 0.1 to 1 | III (III: >10-100) | CC[C@H]1Cc2c(F)cc(C(=O)NO)cc2CN1C1CC2(C1)CN(C)C2 (single isomer, unassigned) [Compound 585]
26 | 10 to 100 | 0.001 to 0.1 | IV (IV: >100-1000) | O=C(NO)c1cc(F)c2c(c1)CCN(C[C@@H]1CCCCO1)C2 (single isomer, unassigned) [Compound 174]
27 | 10 to 100 | 0.001 to 0.1 | V (V: >1000) | CN1CC[C@]2(CC[C@H](N3CCc4cc(C(=O)NO)cc(F)c4C3)C2)C1 (single isomer, unassigned) [Compound 403]
28 | 1 to 10 | 0.001 to 0.1 | IV (IV: >100-1000) | O=C(NO)c1cc(F)c2c(c1)CCN(C1CCC13CNC3)C2 (stereo not shown) [Compound 301, 2-(2-azaspiro[3.3]heptan-7-yl)-8-fluoro-3,4-dihydro-1H-isoquinoline-6-carbohydroxamic acid]
29 | 1 to 10 | 0.1 to 1 | III (III: >10-100) | CN1CC[C@]2(CC[C@H]2N2CCc3cc(C(=O)NO)cc(F)c3C2)C1 (single isomer, unassigned) [Compound 332]
30 | 10 to 100 | 0.001 to 0.1 | IV (IV: >100-1000) | CC[C@H]1Cc2c(F)cc(C(=O)NO)cc2CN1C[C@]12CN[C@H](CO1)C2 (single isomer, unassigned) [Compound 549]
31 | > 100 | 0.001 to 0.1 | V (V: >1000) | CC[C@H]1Cc2c(F)cc(C(=O)NO)cc2CN1CC1COC1 (single isomer, unassigned) [Compound 216]
32 | 1 to 10 | 0.1 to 1 | III (III: >10-100) | CC[C@@H]1Cc2c(F)cc(C(=O)NO)cc2CN1CC12CC3CC(CC(C3)C1)C2 (single isomer, unassigned) [Compound 507]
33 | 1 to 10 | 0.001 to 0.1 | IV (IV: >100-1000) | O=C(NO)c1cc(F)c2c(c1)CCN(C1CCC13CCNCC3)C2 (stereo not shown) [Compound 357, 2-(7-azaspiro[3.5]nonan-3-yl)-8-fluoro-3,4-dihydro-1H-isoquinoline-6-carbohydroxamic acid]
34 | 1 to 10 | 0.001 to 0.1 | IV (IV: >100-1000) | O=C(NO)c1cc(F)c2c(c1)CCN([C@@H]1CCNC3(CCC3)C1)C2 (single isomer, unassigned) [Compound 436]
35 | 10 to 100 | 0.001 to 0.1 | IV (IV: >100-1000) | CC[C@H]1Cc2c(F)cc(C(=O)NO)cc2CN1C1CC2(CCCCC2)C1 (single isomer, unassigned) [Compound 233]
